In the supplement of paper PMC10307832:

How the values were obtained:
Assay in all cases: relative viability (nuclei count vs DMSO), 5 days (fraction); higher = more cells survive
[1] = compound: C1CNCCC1C2=CC(=NN2)C3=CC=NC=C3 + C[C@]1(O)C[C@@H](c2nc(-c3ccc4ccc(-c5ccccc5)nc4c3)c3c(N)nccn32)C1 [Linsitinib] (partner 1 µM)
Summary of the method: (§1)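 For relative viability, nuclei counts in treated wells were divided by those in vehicle wells. Lung cancer cell lines had been pin-tool dosed in 1536-well plates the day after seeding and cultured for 5 days, then fixed and stained in one step (final 0.05% Triton X-100, 1% formaldehyde, 1 ug/ml Hoechst) and imaged at 4×. Doses were one drug alone or a fixed anchor-drug dose plus five library-drug doses (not always all listed) in √10 steps, and values are duplicate-plate medians.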

[2] = compound: C1CNCCC1C2=CC(=NN2)C3=CC=NC=C3 + N=C(N)NC(=N)NCCc1ccccc1 [Phenformin] (partner 250 µM)
Summary of the method: as §1

[3] = compound: C1CNCCC1C2=CC(=NN2)C3=CC=NC=C3 + CC(C)C[C@H](NC(=O)[C@H](Cc1ccccc1)NC(=O)c1cnccn1)B(O)O [Bortezomib] (partner 0.002 µM)
Summary of the method: as §1

Tanzisertib + Dasatinib = compound: O[C@H]1CC[C@H](Nc2ncc3nc(Nc4c(F)cc(F)cc4F)n([C@H]4CCOC4)c3n2)CC1 [Tanzisertib] + Cc1nc(Nc2ncc(C(=O)Nc3c(C)cccc3Cl)s2)cc(N2CCN(CCO)CC2)n1 [Dasatinib] (partner 0.075 µM)
Summary of the method: as §1

Cell Line	relative viability ([1]; first compound 0.08 µM)	relative viability ([1]; first compound 0.8 µM)	relative viability ([1]; first compound 2.53 µM)	relative viability ([1]; first compound 8 µM)	relative viability ([2]; first compound 0.08 µM)	relative viability ([2]; first compound 0.8 µM)	relative viability ([2]; first compound 2.53 µM)	relative viability ([2]; first compound 8 µM)	relative viability ([3]; first compound 0.08 µM)	relative viability ([3]; first compound 0.8 µM)	relative viability ([3]; first compound 2.53 µM)	relative viability ([3]; first compound 8 µM)	relative viability (Tanzisertib + Dasatinib; first compound 0.08 µM)	relative viability (Tanzisertib + Dasatinib; first compound 0.253 µM)	relative viability (Tanzisertib + Dasatinib; first compound 0.8 µM)	relative viability (Tanzisertib + Dasatinib; first compound 2.53 µM)	relative viability (Tanzisertib + Dasatinib; first compound 8 µM)
HCC-15	0.809	0.903	0.937	0.905	0.401	0.54	0.494	0.469	0.991	1.23	0.994	0.938	0.764	0.646	0.637	0.642	0.591
LCLC-103H	1.07	0.846	1.1	0.951	0.318	0.351	0.361	0.342	1.06	0.936	1.3	1.12	0.496	0.466	0.427	0.402	0.468
NCI-H23	0.5	0.642	0.675	0.644	0.722	0.894	0.828	0.847	0.729	0.866	1.1	1.24	0.918	0.814	0.726	0.694	0.51
NCI-H1792	0.521	0.514	0.566	0.534	0.231	0.237	0.38	0.227	0.96	0.998	1.07	0.993	0.819	0.685	0.78	0.724	0.552
NCI-H596	0.894	1.12	1.03	1.03	0.657	0.841	0.927	0.86	1	1.06	1.12	1.16	0.673	0.614	0.541	0.53	0.459
NCI-H1563	0.868	1.13	1.24	1.25	0.619	0.642	0.679	0.673	0.744	0.853	0.917	0.977	0.435	0.479	0.451	0.471	0.436
NCI-H460	0.421	1.22	0.818	0.849	0.335	0.72	0.564	0.51	0.892	1.49	1.06	1.12	0.595	0.595	0.489	0.474	0.303
HCC-366	0.55	0.756	0.712	0.622	0.653	0.656	0.618	0.659	0.856	1.11	1.08	1.04	0.81	0.606	0.629	0.62	0.542
NCI-H2085	0.975	0.732	1.1	0.95	0.744	0.418	0.801	0.817	0.975	0.736	1.11	1.03	0.22	0.246	0.24	0.224	0.261
PC-14	0.997	0.992	1.03	0.941	0.529	0.684	0.743	0.579	0.897	0.951	0.945	0.789	0.341	0.238	0.306	0.234	0.116
HOP-62	0.892	1.12	1.19	1.08	0.602	0.844	0.756	0.621	0.479	0.84	1.15	0.728	0.733	0.654	0.659	0.644	0.569
NCI-H2087	1.04	1.09	0.973	0.96	0.459	0.479	0.496	0.479	0.866	1.01	0.728	0.763	0.842	0.876	0.77	0.967	0.686
PC-3 [JPC-3]	0.913	0.975	0.936	0.896	0.499	0.447	0.494	0.463	0.845	0.814	0.811	0.793	0.912	1.04	1.01	0.977	0.886
H3255	0.858	1.13	0.957	0.993	0.366	0.323	0.429	0.434	0.826	0.835	1.41	0.741	0.426	0.499	0.306	0.345	0.344
EMC-BAC-2	0.78	0.806	0.818	0.771	0.499	0.609	0.661	0.552	0.978	1.19	1.2	1.03	0.315	0.321	0.328	0.351	0.299
CAL-12T	0.792	0.754	0.9	0.872	0.598	0.663	0.654	0.616	1.08	1.01	1.05	1.07	0.453	0.343	0.375	0.314	0.319
NCI-H650	0.751	0.727	1.06	0.75	0.5	0.451	0.473	0.46	0.803	0.689	0.949	0.734	0.44	0.463	0.443	0.47	0.309
NCI-H1355	0.868	0.71	0.891	0.797	0.482	0.463	0.49	0.456	1.23	1.22	1.27	1.26	0.757	0.757	0.78	0.628	0.707
NCI-H838	0.969	1.05	1.07	0.983	0.605	0.546	0.577	0.563	0.823	0.939	0.739	0.73	0.355	0.324	0.3	0.328	0.31
NCI-H322M	0.874	0.71	0.899	0.888	0.796	0.77	0.856	0.864	1.27	1.19	1.39	1.29	0.243	0.248	0.275	0.249	0.262
NCI-H661	0.534	0.524	0.528	0.584	0.277	0.263	0.273	0.273	0.916	0.825	0.801	1.01	1.01	0.867	0.971	0.785	0.868
NCI-H2228	0.734	0.869	0.503	0.811	0.328	0.368	0.286	0.359	0.929	1.22	1.07	0.863	0.624	0.524	0.537	0.462	0.433
NCI-H520	0.883	1.04	0.867	0.912	0.439	0.309	0.758	0.908	0.365	0.558	0.559	0.573	0.233	0.207	0.232	0.192	0.23
NCI-H441	0.65	0.361	0.753	0.497	0.634	0.947	0.831	0.753		0.764	0.609	0.269	0.625	0.499	0.605	0.479	0.521
